Consider 1 molecule from patent publication US8241607B2, “Use of fructose-based compounds for the diagnosis of cancer” (priority 2005, dated 2012).

Series [1] concerns GLUT-5 mRNA. Briefly: Real-time RT-PCR of GLUT-5 mRNA in PANC-1 cells. The class given is cell-based. As to conditions: 5.5 mM fructose, 24 h. The method, then:
FIG. 22 depicts […] mRNA levels in pancreatic cancer cells in accordance with an embodiment of the present invention. Quantitative real-time RT-PCR was used to measure GLUT-5 mRNA levels in pancreatic cancer cells (PANC-1), following culture in 2 mM glucose, 5.5 mM glucose, or 5.5 mM fructose for 4 h and 24 h.
Brit J Biomed Sci 56(4): 285-292, 1999; Rogers S, Docherty S E, Slavin J L, Henderson and Best J D. Differential expression of GLUT12 in breast cancer and normal breast tissue. Cancer Letters 193(2): 225-233, 2003). […] Real-time RT-PCR was used to measure GLUT-5 mRNA expression following 2 mM, and 5.5 mM glucose-, and 5.5 mM fructose-treatment for 4 h, and 24 h respectively. GLUT-5 mRNA was expressed as the fold-change relative to GLUT-5 mRNA levels in 2 mM glucose-treated cells. As depicted in FIG. 22, at 4 h, GLUT-5 mRNA levels were low in both the 5.5 mM glucose-, and fructose-treated PANC-1 cells. […] This agrees with other studies which have reported fructose-induced GLUT-5 mRNA expression in colon cancer (74).

Series [2] in a line: Serum fructose in normal volunteers after two cans of soda (fructose dehydrogenase assay). The class given is in vivo, human. The note with it: 3 normal volunteers. Here is the method:
FIG. 37 depicts fasting serum fructose and glucose levels in patients with pancreatic cancer and in normal volunteers in accordance with an embodiment of the present invention. (a) Fasting serum fructose and glucose levels in 6 patients with pancreatic cancer on the morning of resection. (b) Serum fructose, and glucose levels (Mean±SEM) in 3 normal volunteers after a 10 h fast, followed by ingestion of two cans of soda, containing 76 g of carbohydrate in the form of high fructose corn syrup (55% fructose, 45% glucose).
The normal circulating concentrations of fructose are unknown. […] Briefly, aliquots (20 μl) of fructose standards (0.1, 0.5, 1, 2, 4, 6, and 8 mM) or unknown serum samples were mixed with 5 μl of a stock solution (125 U/ml) of the enzyme fructose dehydrogenase (Sigma) in 175 μl citric acid (0.05 M) phosphate (0.09 M) buffer (pH 4.5), and 20 μl of 3-(4,5-dimethylthiazol-2yl)-2,5-diphenyltetrazolium bromide (MTT), and phenazine methosulfate (Promega), incubated for 30 minutes, after which absorbance at 570 nm was recorded in a 96-well spectrophotometer. […] As the first analysis, in accordance with institutional review board guidelines, the inventors obtained 32 serum samples randomly selected from anonymous inpatients at Cedars-Sinai Medical Center. The inventors also measured glucose in these same samples using standard glucose oxidase based methods. […]

As for `O=C(CO)[C@@H](O)[C@H](O)[C@H](O)CO` [fructose], in series [1], the “GLUT-5 mRNA levels relative to 2 mM glucose-treated cells” value is 1.5 fold higher and the “GLUT-5 mRNA levels relative to 5.5 mM glucose-treated cells” value was found to be 1.75 fold higher. Moreover, in series [2] (30 minutes after two sodas), the “mean serum fructose levels, peak” value is given as 17 mM. Moreover, in series [2] (for the 2 hour duration of blood sampling), the serum fructose levels result was “greater than 5 mM”.
